Consider 19 molecules from US12606552B2, “Bifunctional compound, preparation method therefor, and use thereof” (SUZHOU KINTOR PHARMACEUTICALS, INC., priority 2020, dated 2026).

In one data set the target is T1, AR (Homo sapiens, UniProt P10275, T878A).
T1 sequence (P10275 1-920 T878A): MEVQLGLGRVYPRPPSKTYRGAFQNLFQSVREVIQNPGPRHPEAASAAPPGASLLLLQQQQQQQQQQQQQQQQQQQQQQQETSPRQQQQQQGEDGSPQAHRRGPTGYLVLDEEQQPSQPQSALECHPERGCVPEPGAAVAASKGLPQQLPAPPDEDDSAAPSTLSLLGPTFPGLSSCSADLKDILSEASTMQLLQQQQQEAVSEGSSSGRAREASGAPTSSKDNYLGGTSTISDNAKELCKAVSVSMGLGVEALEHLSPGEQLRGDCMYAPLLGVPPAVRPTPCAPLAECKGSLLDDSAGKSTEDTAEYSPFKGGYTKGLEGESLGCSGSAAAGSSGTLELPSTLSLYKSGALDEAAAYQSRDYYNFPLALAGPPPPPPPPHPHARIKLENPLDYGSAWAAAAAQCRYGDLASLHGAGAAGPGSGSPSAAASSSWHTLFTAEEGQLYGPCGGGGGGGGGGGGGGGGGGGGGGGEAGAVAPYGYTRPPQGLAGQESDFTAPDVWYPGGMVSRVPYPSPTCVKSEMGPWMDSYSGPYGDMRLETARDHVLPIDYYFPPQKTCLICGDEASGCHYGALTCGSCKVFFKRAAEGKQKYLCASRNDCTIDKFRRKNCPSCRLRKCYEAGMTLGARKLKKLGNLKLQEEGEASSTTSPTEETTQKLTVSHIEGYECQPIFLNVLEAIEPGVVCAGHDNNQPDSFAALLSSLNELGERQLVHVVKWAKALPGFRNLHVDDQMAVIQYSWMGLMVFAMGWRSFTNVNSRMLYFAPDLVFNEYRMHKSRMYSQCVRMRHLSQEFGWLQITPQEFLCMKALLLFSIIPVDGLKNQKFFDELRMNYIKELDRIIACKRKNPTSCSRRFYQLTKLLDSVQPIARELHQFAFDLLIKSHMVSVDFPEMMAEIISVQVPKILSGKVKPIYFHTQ
Description: Effects of compounds on AR expression in LNCaP cells (ELISA, DC50). It counts as cell-based. The arrangement: Measurement of the Effects of Drugs on the Expression of AR in Cells by ELISA Method; endogenous in cells; host or cells: LNCaP. The settings on record: 24 hours of drug treatment, AR by ELISA. The procedure, abridged: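 LNCaP cells at about 15,000/well were treated for 24 h with compound at 0.0001–2 μmol/L final. AR in cell lysates was measured by ELISA (OD450). Inhibition was relative to DMSO control after blank subtraction, and DC50 was calculated from it.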

The nature of data set [1]: Pharmacokinetic studies of compounds in mice. The class given is in vivo. To be noted: male mice, intragastric administration 10 mg/kg, plasma. As for the experimental part: Activity Assay Example 3: Pharmacokinetic Studies of Compounds in Mice
In this test, 3 male mice were selected and divided into 1 group, 3 mice/group. All animals were fasted overnight before administration.
The intragastric administration dose was 10 mg/kg, and the administration volume was 10 mL/kg.
2.2 Preparation of Drug Solution
According to the animal body weight combined with the administration dose, the amount of the required drug solution was calculated. An appropriate amount of the test substance was weighed, added with 5% of the final volume of ethanol for dissolution, then added with 5% of the final volume of SolutolHS15, and finally added with PBS to the final volume, and mixed by vortex and fully dissolved to obtain a solution for intragastric administration (1 mg/mL). All solutions were prepared for immediate use.
2.3 Method of Administration
Before administration, the drug solution was placed on a magnetic stirrer in the animal laboratory and stirred for at least 10 min. During the administration process, vortex was continued to ensure uniformity of the drug solution. The theoretical volume of gavage administration was 10 mL/kg, which was administered with a syringe equipped with a gavage needle.
Before administration, the animals were weighed and the body weight of the animals involved in the experiment was recorded, and the administration volume of each animal was calculated according to the body weight. After administration, animals were promptly transferred back to the experimental cages to collect samples.
2.4 Observation of Animal Status
After administration, whether animals had abnormal reactions was observed immediately. If there were no abnormal reactions, animals were observed twice a day during the experiment. If abnormal reactions were found, they should be recorded in time, and the number of observations should be increased until the animals returned to normal or to the end of the experiment.
2.5 Sample Collection and Preservation
All experimental animals were fasted overnight before administration, and blood was collected at corresponding time points into blood collection tubes containing heparin sodium anticoagulant. After the whole blood was collected, the blood collection tube was gently shaken and placed on ice immediately, and then centrifuged (4° C., 4000 rpm, 10 min) to collect supernatant plasma samples, which were stored in a refrigerator at −80° C. before analysis.
2.6 Plasma Sample Processing and Analysis
The collected plasma samples were handed over to the Pharmacokinetic department for sample extraction, and the test substances in the plasma were extracted by protein precipitation method using organic reagents containing internal standards (acetonitrile:plasma=4:1, v/v). The extracted processed samples were submitted for quantitative concentration analysis by LC-MS/MS. According to the plasma concentration of each animal obtained by the analysis, software Kinetica (version 5.0) was used to calculate the main pharmacokinetic parameter eAUC30-120 according to the non-compartment model to evaluate the exposure amount; the test results are shown in Table 2: […]

With `Cc1ncsc1-c1ccc([C@H](C)NC(=O)[C@@H]2C[C@@H](O)CN2C(=O)[C@@H](NC(=O)COCCCCOc2c(F)cc(-c3ncc(N4C(=S)N(c5ccc(C#N)c(C(F)(F)F)c5F)C(=O)C4(C)C)cc3F)cc2F)C(C)(C)C)cc1` [Compound A124], on AR, the DC50 worked out at 188 nM. Besides, the “eAUC0.5-2 h” value in data set [1] was 2776 ± 292 ng·h/mL.
The like results for `Cc1ncsc1-c1ccc([C@H](C)NC(=O)[C@@H]2C[C@@H](O)CN2C(=O)[C@@H](NC(=O)COCCCCOc2ccc(-c3ncc(N4C(=S)N(c5ccc(C#N)c(C(F)(F)F)c5F)C(=O)C4(C)C)cc3F)cc2F)C(C)(C)C)cc1` [Compound A110] were, in that order, 56.4 nM and 1098 ± 208 ng·h/mL.
Molecule `Cc1ncsc1-c1ccc(CNC(=O)[C@@H]2C[C@@H](O)CN2C(=O)[C@@H](NC(=O)COCCCCCOc2ccc(-c3ncc(N4C(=S)N(c5ccc(C#N)c(C(F)(F)F)c5F)C(=O)C4(C)C)cc3F)cc2F)C(C)(C)C)cc1` [Compound A89] had a DC50 at AR of 72 nM. Moreover, the “eAUC0.5-2 h” value in data set [1] came to 501 ± 103.57 ng·h/mL.
The like results for `Cc1ncsc1-c1ccc(CNC(=O)[C@@H]2C[C@@H](O)CN2C(=O)[C@@H](NC(=O)COCCCCOc2ccc(-c3ncc(N4C(=S)N(c5ccc(C#N)c(C(F)(F)F)c5F)C(=O)C4(C)C)cc3F)cc2F)C(C)(C)C)cc1` [Compound A70] were, in that order, 62.1 nM and 1686 ± 938 ng·h/mL.
As to `Cc1ncsc1-c1ccc(CNC(=O)[C@@H]2C[C@@H](O)CN2C(=O)[C@@H](NC(=O)COCCCCOc2ccc(-c3ccc(N4C(=S)N(c5ccc(C#N)c(C(F)(F)F)c5F)C(=O)C4(C)C)cn3)cc2F)C(C)(C)C)cc1` [Compound A55], at AR, the DC50 is 38.8 nM. For the same molecule, the “eAUC0.5-2 h” value in data set [1] came out at 396 ± 79 ng·h/mL.
For `Cc1ncsc1-c1ccc(CNC(=O)[C@@H]2C[C@@H](O)CN2C(=O)[C@@H](NC(=O)COCCCCOc2ccc(-c3ncc(N4C(=S)N(c5ccc(C#N)c(C(F)(F)F)c5F)C(=O)C4(C)C)cc3C(F)(F)F)c(C(F)(F)F)c2)C(C)(C)C)cc1` [Compound A101], the DC50 at AR was determined as 115 nM. For the same molecule, the “eAUC0.5-2 h” value in data set [1] amounted to 508 ± 171 ng·h/mL.
The like results for `Cc1ncsc1-c1ccc(CNC(=O)[C@@H]2C[C@@H](O)CN2C(=O)[C@@H](NC(=O)COCCCCCOc2ccc(-c3ccc(N4C(=S)N(c5ccc(C#N)c(C(F)(F)F)c5F)C(=O)C4(C)C)cn3)cc2)C(C)(C)C)cc1` [Compound A73] were, in that order, 49.3 nM and 189 ± 108 ng·h/mL.
`CC1(C)C(=O)N(c2ccc(C#N)c(C(F)(F)F)c2F)C(=S)N1c1ccc(-c2ccc(OCCNC(=O)COc3cccc4c3C(=O)N(C3CCC(=O)NC3=O)C4=O)c(F)c2)nc1` (centres unmarked) [Compound A35] returned a DC50 on AR of 117 nM. In addition, in data set [1], the “eAUC0.5-2 h” value stood at 71 ± 51 ng·h/mL.
Molecule `Cc1ncsc1-c1ccc2[nH]c([C@@H]3C[C@@H](O)CN3C(=O)[C@@H](NC(=O)COCCCCOc3ccc(-c4ncc(N5C(=S)N(c6ccc(C#N)c(C(F)(F)F)c6F)C(=O)C5(C)C)cc4F)cc3F)C(C)(C)C)nc2c1` [Compound A138] had a DC50 on AR of 1500 nM. Further, the “eAUC0.5-2 h” value in data set [1] is 471 ± 288 ng·h/mL.
With `Cc1ncsc1-c1ccc(CNC(=O)[C@@H]2C[C@@H](O)CN2C(=O)[C@@H](NC(=O)COCCOCCOc2c(F)cc(-c3ncc(N4C(=S)N(c5ccc(C#N)c(C(F)(F)F)c5F)C(=O)C4(C)C)cc3F)cc2F)C(C)(C)C)cc1` [Compound A99], the DC50 on AR was 23.2 nM. Moreover, the “eAUC0.5-2 h” value in data set [1] came out at 308 ± 288 ng·h/mL.
Regarding `Cc1ncsc1-c1ccc(CNC(=O)[C@@H]2C[C@@H](O)CN2C(=O)[C@@H](NC(=O)COCCCCOc2ccc(-c3ncc(N4C(=S)N(c5ccc(C#N)c(C(F)(F)F)c5F)C(=O)C4(C)C)cc3C(F)(F)F)cc2F)C(C)(C)C)cc1` [Compound A74], on AR, the DC50 is 77.8 nM. Also, the “eAUC0.5-2 h” value in data set [1] is 746 ± 158 ng·h/mL.
Regarding `Cc1ncsc1-c1ccc([C@H](C)NC(=O)[C@@H]2C[C@@H](O)CN2C(=O)[C@@H](NC(=O)COCCCCOc2ccc(-c3ccc(N4C(=S)N(c5ccc(C#N)c(C(F)(F)F)c5F)C(=O)C4(C)C)cn3)cn2)C(C)(C)C)cc1` [Compound A126], the DC50 at AR came to 55 nM. Besides, the “eAUC0.5-2 h” value in data set [1] turned out to be 1110 ± 158 ng·h/mL.
In the same order, the values of `Cc1ncsc1-c1ccc(CNC(=O)[C@@H]2C[C@@H](O)CN2C(=O)[C@@H](NC(=O)COCCOCCOc2ccc(-c3ccc(N4C(=S)N(c5ccc(C#N)c(C(F)(F)F)c5F)C(=O)C4(C)C)cn3)cc2F)C(C)(C)C)cc1` [Compound A85] are 33 nM and 70 ± 23 ng·h/mL.
The like results for `Cc1ncsc1-c1ccc(CNC(=O)[C@@H]2C[C@@H](O)CN2C(=O)[C@@H](NC(=O)COCCCCOc2c(F)cc(-c3ncc(N4C(=S)N(c5ccc(C#N)c(C(F)(F)F)c5F)C(=O)C4(C)C)cc3C(F)(F)F)cc2F)C(C)(C)C)cc1` [Compound A79] were, in that order, 129 nM and 950 ± 114 ng·h/mL.
At AR, `Cc1ncsc1-c1ccc(CNC(=O)[C@@H]2C[C@@H](O)CN2C(=O)[C@@H](NC(=O)COCCCCOc2ccc(-c3ccc(N4C(=S)N(c5ccc(C#N)c(C(F)(F)F)c5F)C(=O)C4(C)C)cn3)cc2C(F)(F)F)C(C)(C)C)cc1` [Compound A84] gave a DC50 of 140 nM. Also, the “eAUC0.5-2 h” value in data set [1] stood at 774 ± 119 ng·h/mL.
In the same order, the values of `Cc1ncsc1-c1ccc(CNC(=O)[C@@H]2C[C@@H](O)CN2C(=O)[C@@H](NC(=O)COCCOCCOc2ccc(-c3ncc(N4C(=S)N(c5ccc(C#N)c(C(F)(F)F)c5F)C(=O)C4(C)C)cc3F)cc2F)C(C)(C)C)cc1` [Compound A90] are 36.4 nM and 96 ± 28.51 ng·h/mL.
On AR, `Cc1ncsc1-c1ccc(CNC(=O)[C@@H]2C[C@@H](O)CN2C(=O)[C@@H](NC(=O)COCCCCOc2ccc(-c3ncc(N4C(=S)N(c5ccc(C#N)c(C(F)(F)F)c5F)C(=O)C4(C)C)cc3C(F)(F)F)cc2)C(C)(C)C)cc1` [Compound A62] gave a DC50 of 80 nM. Further, the “eAUC0.5-2 h” value in data set [1] came to 498 ± 124 ng·h/mL.
In turn, `Cc1ncsc1-c1ccc([C@H](CC(=O)N2CCC(Oc3ccc(-c4ncc(N5C(=S)N(c6ccc(C#N)c(C(F)(F)F)c6F)C(=O)C5(C)C)cc4F)cc3F)CC2)NC(=O)[C@@H]2C[C@@H](O)CN2C(=O)[C@@H](NC(=O)C2(F)CC2)C(C)(C)C)cc1` [Compound A136] yielded a DC50 on AR of 68 nM. For the same molecule, in data set [1], the “eAUC0.5-2 h” value is 697 ± 127 ng·h/mL.
With `Cc1ncsc1-c1ccc(CNC(=O)[C@@H]2C[C@@H](O)CN2C(=O)[C@@H](NC(=O)COCCCCCOc2c(F)cc(-c3ncc(N4C(=S)N(c5ccc(C#N)c(C(F)(F)F)c5F)C(=O)C4(C)C)cc3F)cc2F)C(C)(C)C)cc1` [Compound A97], the DC50 at AR was 98.4 nM. Further, the “eAUC0.5-2 h” value in data set [1] was determined as 1690 ± 158 ng·h/mL.
